Several values for one entry are separate records, joined by “and”; a condition that tells them apart may be missing. Equal entries are not always repeated. Inconclusive results and toxic doses are left out. Rule as the data show it: active = T/C of 150% or more; inactive = T/C below 125%.
Tested on: L1210 leukemia ip in BDF1 mice, survival T/C
Assay: NCI In Vivo Anticancer Drug Screen. Data for tumor model L1210 Leukemia (intraperitoneal) in B6D2F1 (BDF1) mice
Details: endpoint: mean survival time, higher = longer survival
Method in brief: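 Mice bearing the transplanted tumor received compound or vehicle. Survival of the treated group was divided by that of the vehicle-treated control group to give the ratio.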

[1] = dose: 100.0 mg/kg/injection, schedule: Q01DX001 (ip), vehicle: saline
[2] = dose: 100.0 mg/kg/injection, schedule: Q04DX003 (ip), vehicle: saline
[3] = dose: 200.0 mg/kg/injection, schedule: Q01DX001 (ip), vehicle: saline
[4] = dose: 200.0 mg/kg/injection, schedule: Q04DX003 (ip), vehicle: saline
[5] = dose: 400.0 mg/kg/injection, schedule: Q01DX001 (ip), vehicle: saline
[6] = dose: 400.0 mg/kg/injection, schedule: Q04DX003 (ip), vehicle: saline
[7] = dose: 50.0 mg/kg/injection, schedule: Q01DX009 (ip), vehicle: Klucel (hydroxypropylcellulose) (HPC)
[8] = dose: 100.0 mg/kg/injection, schedule: Q01DX009 (ip), vehicle: Klucel (hydroxypropylcellulose) (HPC)
[9] = dose: 200.0 mg/kg/injection, schedule: Q01DX009 (ip), vehicle: Klucel (hydroxypropylcellulose) (HPC)
[10] = dose: 400.0 mg/kg/injection, schedule: Q01DX009 (ip), vehicle: Klucel (hydroxypropylcellulose) (HPC)
[11] = dose: 100.0 mg/kg/injection, schedule: Q01DX009 (ip), vehicle: saline with Tween-80
[12] = dose: 100.0 mg/kg/injection, schedule: Q01DX001 (ip), vehicle: carboxymethylcellulose (CMC)
[13] = dose: 200.0 mg/kg/injection, schedule: Q01DX001 (ip), vehicle: carboxymethylcellulose (CMC)
[14] = dose: 100.0 mg/kg/injection, schedule: Q04DX003 (ip), vehicle: Klucel (hydroxypropylcellulose) (HPC)

Measured: T/C

Nc1ncc(N)c(N)n1
inactive: dose: 21.0 mg/kg/injection, schedule: Q01DX Z (ip), vehicle: saline 101 % of control | dose: 25.0 mg/kg/injection, schedule: Q01DX Z (ip), vehicle: carboxymethylcellulose (CMC) 109 % of control | dose: 31.0 mg/kg/injection, schedule: Q01DX Z (ip), vehicle: saline 106 % of control | dose: 47.0 mg/kg/injection, schedule: Q01DX Z (ip), vehicle: saline 121 % of control | dose: 50.0 mg/kg/injection, schedule: Q01DX001 (ip), vehicle: saline 106 % of control | [1] 103 % of control | [2] 112 % of control | dose: 117.0 mg/kg/injection, schedule: Q01DX009 (ip), vehicle: saline with Tween-80 116 % of control | dose: 125.0 mg/kg/injection, schedule: Q01DX001 (ip), vehicle: carboxymethylcellulose (CMC) 101 % of control and 118 % of control | dose: 125.0 mg/kg/injection, schedule: Q## X001 (ip), vehicle: carboxymethylcellulose (CMC) 110 % of control | [3] 103 % of control | [4] 117 % of control | dose: 240.0 mg/kg/injection, schedule: Q04DX003 (ip), vehicle: saline 111 % of control | dose: 250.0 mg/kg/injection, schedule: Q01DX001 (ip), vehicle: carboxymethylcellulose (CMC) 102 % of control and 108 % of control | dose: 250.0 mg/kg/injection, schedule: Q## X001 (ip), vehicle: carboxymethylcellulose (CMC) 111 % of control | dose: 360.0 mg/kg/injection, schedule: Q04DX003 (ip), vehicle: saline 108 % of control | [5] 97 % of control | [6] 118 % of control | dose: 500.0 mg/kg/injection, schedule: Q01DX001 (ip), vehicle: carboxymethylcellulose (CMC) 98 % of control and 117 % of control | dose: 500.0 mg/kg/injection, schedule: Q## X001 (ip), vehicle: carboxymethylcellulose (CMC) 105 % of control | dose: 810.0 mg/kg/injection, schedule: Q01DX Z (ip), vehicle: saline 86 % of control | dose: 1000.0 mg/kg/injection, schedule: Q01DX001 (ip), vehicle: carboxymethylcellulose (CMC) 102 % of control and 112 % of control | dose: 1000.0 mg/kg/injection, schedule: Q## X001 (ip), vehicle: carboxymethylcellulose (CMC) 98 % of control
active: dose: 360.0 mg/kg/injection, schedule: Q01DX Z (ip), vehicle: carboxymethylcellulose (CMC) 159 % of control | dose: 500.0 mg/kg/injection, schedule: Q01DX Z (ip), vehicle: carboxymethylcellulose (CMC) 160 % of control

NCC1CC2CCC1C2 (centres undefined)
inactive: dose: 100.0 mg/kg/injection, schedule: Q01DX009 (ip), vehicle: saline 90 % of control | [2] 101 % of control | dose: 200.0 mg/kg/injection, schedule: Q01DX009 (ip), vehicle: saline 90 % of control | [4] 103 % of control | [6] 103 % of control

CC1(C)NC(=O)N(CCOS(C)(=O)=O)C1=O
inactive: dose: 25.0 mg/kg/injection, schedule: Q04DX003 (ip), vehicle: saline 101 % of control | dose: 50.0 mg/kg/injection, schedule: Q04DX003 (ip), vehicle: saline 98 % of control | [2] 104 % of control | [4] 104 % of control | [6] 93 % of control

CSc1ccc(NC(=O)Nc2cc(Cl)c(Cl)cc2C)cc1
inactive: [7] 87 % of control | [8] 87 % of control | [9] 86 % of control and 92 % of control | [10] 86 % of control

CC(C)n1cc2cc([N+](=O)[O-])ccc2n1
inactive: [7] 91 % of control | [8] 97 % of control | [9] 97 % of control

c1ccc(C(CCCCC(c2ccccc2)c2ccccc2)c2ccccc2)cc1
inactive: dose: 75.0 mg/kg/injection, schedule: Q01DX001 (ip), vehicle: saline 94 % of control | dose: 150.0 mg/kg/injection, schedule: Q01DX001 (ip), vehicle: saline 92 % of control | dose: 300.0 mg/kg/injection, schedule: Q01DX001 (ip), vehicle: saline 93 % of control

CCOC(=O)/C=C/Cc1cc(-c2ccccc2)ccc1O
inactive: dose: 100.0 mg/kg/injection, schedule: Q04DX003 (ip), vehicle: acetone 98 % of control | dose: 200.0 mg/kg/injection, schedule: Q04DX003 (ip), vehicle: acetone 98 % of control | dose: 400.0 mg/kg/injection, schedule: Q04DX003 (ip), vehicle: acetone 103 % of control

CCOC(=O)CNC(=O)NCc1ccc2c(c1)OCO2
inactive: [11] 98 % of control | dose: 200.0 mg/kg/injection, schedule: Q01DX009 (ip), vehicle: saline with Tween-80 90 % of control

CSc1nc(N)c(N=Nc2ccc(S(=O)(=O)Nc3occ(C)c3C)cc2)c(=O)[nH]1
inactive: [12] 97 % of control | [13] 92 % of control | dose: 400.0 mg/kg/injection, schedule: Q01DX001 (ip), vehicle: carboxymethylcellulose (CMC) 94 % of control

CCCCS/C=C1/CC2(C)C(CCC3C4CCC(O)C4(C)CCC32)CC1=O (centres undefined)
inactive: [14] 89 % of control | dose: 200.0 mg/kg/injection, schedule: Q04DX003 (ip), vehicle: Klucel (hydroxypropylcellulose) (HPC) 91 % of control

O=C(Nc1ccc(S(=O)(=O)F)cc1)OCc1ccc([N+](=O)[O-])cc1
inactive: dose: 100.0 mg/kg/injection, schedule: Q01DX001 (ip), vehicle: saline with Tween-80 105 % of control | dose: 200.0 mg/kg/injection, schedule: Q01DX001 (ip), vehicle: saline with Tween-80 95 % of control | dose: 400.0 mg/kg/injection, schedule: Q01DX001 (ip), vehicle: saline with Tween-80 100 % of control

O=C(O)c1c(F)c(F)c(O)c(F)c1F
inactive: dose: 25.6 mg/kg/injection, schedule: Q04DX002 (ip), vehicle: saline with Tween-80 103 % of control | dose: 64.0 mg/kg/injection, schedule: Q04DX002 (ip), vehicle: saline with Tween-80 110 % of control | dose: 160.0 mg/kg/injection, schedule: Q04DX002 (ip), vehicle: saline with Tween-80 89 % of control | dose: 400.0 mg/kg/injection, schedule: Q04DX002 (ip), vehicle: saline with Tween-80 103 % of control

C[Si](C)(C)OSc1ccccc1[N+](=O)[O-]
inactive: dose: 12.5 mg/kg/injection, schedule: Q01DX009 (ip), vehicle: Klucel (hydroxypropylcellulose) (HPC) 93 % of control | dose: 25.0 mg/kg/injection, schedule: Q01DX009 (ip), vehicle: Klucel (hydroxypropylcellulose) (HPC) 92 % of control | [7] 93 % of control | [8] 104 % of control | [9] 95 % of control | [10] 97 % of control

Cc1c(/C=N\Nc2ccccc2)[nH]c(=O)[nH]c1=O
inactive: [1] 92 % of control | [3] 92 % of control | [5] 86 % of control

OC(c1ccccc1)C1(O)C2CCC1C2 (centres undefined)
inactive: dose: 75.0 mg/kg/injection, schedule: Q04DX002 (ip), vehicle: Klucel (hydroxypropylcellulose) (HPC) 96 % of control | dose: 150.0 mg/kg/injection, schedule: Q04DX002 (ip), vehicle: Klucel (hydroxypropylcellulose) (HPC) 104 % of control | dose: 300.0 mg/kg/injection, schedule: Q04DX002 (ip), vehicle: Klucel (hydroxypropylcellulose) (HPC) 96 % of control

CN(C)C(N1CC1)N1CC1
inactive: dose: 10.0 mg/kg/injection, schedule: Q04DX002 (ip), vehicle: saline 112 % of control | dose: 20.0 mg/kg/injection, schedule: Q04DX002 (ip), vehicle: saline 108 % of control | dose: 40.0 mg/kg/injection, schedule: Q04DX002 (ip), vehicle: saline 97 % of control

COC(=O)CCCc1ccc(N(CCO)CCF)cc1
inactive: dose: 25.0 mg/kg/injection, schedule: Q01DX001 (ip), vehicle: carboxymethylcellulose (CMC) 103 % of control | dose: 50.0 mg/kg/injection, schedule: Q01DX001 (ip), vehicle: carboxymethylcellulose (CMC) 114 % of control | [12] 101 % of control | [13] 106 % of control

Cc1cc2nc(CC(O)(C(F)(F)F)C(F)(F)F)oc2cc1C
inactive: dose: 100.0 mg/kg/injection, schedule: Q04DX003 (ip), vehicle: saline with Tween-80 96 % of control | dose: 200.0 mg/kg/injection, schedule: Q04DX003 (ip), vehicle: saline with Tween-80 102 % of control | dose: 400.0 mg/kg/injection, schedule: Q04DX003 (ip), vehicle: saline with Tween-80 101 % of control

CC(C)c1cccc(OS(=O)(=O)c2ccccc2[N+](=O)[O-])c1
inactive: dose: 25.0 mg/kg/injection, schedule: Q01DX009 (ip), vehicle: saline with Tween-80 105 % of control | dose: 50.0 mg/kg/injection, schedule: Q01DX009 (ip), vehicle: saline with Tween-80 105 % of control | [11] 105 % of control | [14] 93 % of control | dose: 400.0 mg/kg/injection, schedule: Q04DX003 (ip), vehicle: Klucel (hydroxypropylcellulose) (HPC) 96 % of control
